Test results published in patent US20120029187A1, “HALOALKYLSULFONANILIDE DERIVATIVE” (Nissan Chemical Industries, Ltd., priority 2009, published 2012).

Key:
Type in all cases: in vivo
barnyardgrass [1] = experiment: Test Example 1: herbicidal effects in preemergence treatment under submerged conditions; conditions: dose 2.52 g/a
Summary of the method: (§1)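 Alluvial soil flooded to 4 cm depth; barnyardgrass, bulrush and ducksalad sown and 2.5-leaf rice seedlings transplanted. Same day, water-diluted emulsifiable concentrates applied to the water surface at set doses (g/a). Kept at 25–30 °C in greenhouse; effects scored 0–5 by mortality after three weeks.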

bulrush [2] = experiment: as above; conditions: dose 2.52 g/a
Summary of the method: as §1

ducksalad [3] = experiment: as above; conditions: dose 2.52 g/a
Summary of the method: as §1

bulrush [4] = experiment: Test Example 2: herbicidal effects during the vegetation period under submerged conditions; conditions: treatment during the vegetation period under submerged conditions; dose 2.52 g/a
Summary of the method: (§2)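 Barnyardgrass, bulrush and ducksalad were co-sown in alluvial soil flooded to 4 cm and grown in a greenhouse at 25 to 30° C. At the 1- or 2-leaf stage, water-diluted emulsifiable concentrates went onto the water surface at set doses (g/a). Herbicidal effect was scored three weeks later on a graded scale.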

ducksalad [5] = experiment: as above; conditions: treatment during the vegetation period under submerged conditions; dose 2.52 g/a
Summary of the method: as §2

Italian ryegrass [6] = experiment: Test Example 3: herbicidal effects in soil treatment
Summary of the method: (§3)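 Seeds were sown in sterilized diluvial soil and covered with about 1.5 cm of soil. Compounds, formulated as emulsifiable concentrates and diluted with water, were sprayed evenly over the soil surface at set doses in g/a. Herbicidal effect was scored on a rating scale three weeks later.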

barnyardgrass [7] = experiment: as above
Summary of the method: as §3

common chickweed [8] = experiment: as above
Summary of the method: as §3

common lambsquater [9] = experiment: as above
Summary of the method: as §3

common ragweed [10] = experiment: as above
Summary of the method: as §3

giant foxtail [11] = experiment: as above
Summary of the method: as §3

large crabgrass [12] = experiment: as above
Summary of the method: as §3

posumbu knotweed [13] = experiment: as above
Summary of the method: as §3

redroot pigweed [14] = experiment: as above
Summary of the method: as §3

velvetleaf [15] = experiment: as above; conditions: dose 6.3 g/a
Summary of the method: as §3

water foxtail [16] = experiment: as above
Summary of the method: as §3

wild oat [17] = experiment: as above
Summary of the method: as §3

Italian ryegrass [18] = experiment: Test Example 4: herbicidal effect in foliage treatment; conditions: three weeks after application
Summary of the method: (§4)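 Weeds and crops sown in sterilized diluvial soil under ~1.5 cm cover and grown in greenhouse at 25 to 30° C. At 14 days, water-diluted emulsifiable concentrate sprayed onto foliage at set doses (g/a); herbicidal effect scored on a rating scale three weeks after application.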

barnyardgrass [19] = experiment: as above; conditions: three weeks after application
Summary of the method: as §4

beadstraw = experiment: as above; conditions: three weeks after application
Summary of the method: as §4

common chickweed [20] = experiment: as above; conditions: three weeks after application
Summary of the method: as §4

common lambsquater [21] = experiment: as above; conditions: three weeks after application
Summary of the method: as §4

common ragweed [22] = experiment: as above; conditions: three weeks after application
Summary of the method: as §4

giant foxtail [23] = experiment: as above; conditions: three weeks after application
Summary of the method: as §4

large crabgrass [24] = experiment: as above; conditions: three weeks after application
Summary of the method: as §4

posumbu knotweed [25] = experiment: as above; conditions: three weeks after application
Summary of the method: as §4

redroot pigweed [26] = experiment: as above; conditions: three weeks after application
Summary of the method: as §4

velvetleaf [27] = experiment: as above; conditions: three weeks after application
Summary of the method: as §4

water foxtail [28] = experiment: as above; conditions: three weeks after application
Summary of the method: as §4

wild oat [29] = experiment: as above; conditions: three weeks after application
Summary of the method: as §4

transplanted rice = experiment: Test Example 1: preemergence treatment under submerged conditions, effect on crop; conditions: dose 2.52 g/a
Summary of the method: as §1

barnyardgrass [30] = experiment: Test Example 2: herbicidal effects during the vegetation period under submerged conditions; conditions: treatment during the vegetation period under submerged conditions; dose 2.52 g/a
Summary of the method: as §2

O=C1CSCCN1Cc1ccccc1NS(=O)(=O)C(F)(F)F [Compound I-17, 4-(2-trifluoromethanesulfonylaminobenzyl)-1,4-thiazinan-3-one]
A: barnyardgrass, herbicidal effect (evaluation scale 0-5) (barnyardgrass [1]): 4 (mortality of at least 70% and less than 90%) | B: bulrush, herbicidal effect (evaluation scale 0-5) (bulrush [2]): 5 (mortality of 90% or above (nearly complete death)) | C: ducksalad, herbicidal effect (evaluation scale 0-5) (ducksalad [3]): 5 (mortality of 90% or above (nearly complete death)) | B: bulrush, herbicidal effect (evaluation scale 0-5) (bulrush [4]): 5 (mortality of 90% or above (nearly complete death)) | C: ducksalad, herbicidal effect (evaluation scale 0-5) (ducksalad [5]): 4 (mortality of at least 70% and less than 90%) | H: Italian ryegrass, herbicidal effect (evaluation scale 0-5) (Italian ryegrass [6]; dose 6.3 g/a): 3 (mortality of at least 40% and less than 70%) | A: barnyardgrass, herbicidal effect (evaluation scale 0-5) (barnyardgrass [7]; dose 6.3 g/a): 5 (mortality of 90% or above (nearly complete death)) | N: common chickweed, herbicidal effect (evaluation scale 0-5) (common chickweed [8]; dose 6.3 g/a): 5 (mortality of 90% or above (nearly complete death)) | L: common lambsquater, herbicidal effect (evaluation scale 0-5) (common lambsquater [9]; dose 6.3 g/a): 5 (mortality of 90% or above (nearly complete death)) | J: common ragweed, herbicidal effect (evaluation scale 0-5) (common ragweed [10]; dose 6.3 g/a): 4 (mortality of at least 70% and less than 90%) | E: giant foxtail, herbicidal effect (evaluation scale 0-5) (giant foxtail [11]; dose 6.3 g/a): 3 (mortality of at least 40% and less than 70%) | D: large crabgrass, herbicidal effect (evaluation scale 0-5) (large crabgrass [12]; dose 6.3 g/a): 5 (mortality of 90% or above (nearly complete death)) | M: posumbu knotweed, herbicidal effect (evaluation scale 0-5) (posumbu knotweed [13]; dose 6.3 g/a): 2 (mortality of at least 20% and less than 40%) | K: redroot pigweed, herbicidal effect (evaluation scale 0-5) (redroot pigweed [14]; dose 6.3 g/a): 3 (mortality of at least 40% and less than 70%) | I: velvetleaf, herbicidal effect (evaluation scale 0-5) (velvetleaf [15]): 1 (mortality of at least 5% and less than 20%) | G: water foxtail, herbicidal effect (evaluation scale 0-5) (water foxtail [16]; dose 6.3 g/a): 5 (mortality of 90% or above (nearly complete death)) | F: wild oat, herbicidal effect (evaluation scale 0-5) (wild oat [17]; dose 6.3 g/a): 0 (mortality of less than 5% (almost ineffective)) | H: Italian ryegrass, herbicidal effect (Italian ryegrass [18]; dose 6.3 g/a): 3 (mortality of at least 40% and less than 70%) | A: barnyardgrass, herbicidal effect (barnyardgrass [19]; dose 6.3 g/a): 4 (mortality of at least 70% and less than 90%) | O: beadstraw, herbicidal effect (beadstraw; dose 6.3 g/a): 5 (mortality of 90% or above (nearly complete death)) | N: common chickweed, herbicidal effect (common chickweed [20]; dose 6.3 g/a): 4 (mortality of at least 70% and less than 90%) | L: common lambsquater, herbicidal effect (common lambsquater [21]; dose 6.3 g/a): 5 (mortality of 90% or above (nearly complete death)) | J: common ragweed, herbicidal effect (common ragweed [22]; dose 6.3 g/a): 4 (mortality of at least 70% and less than 90%) | E: giant foxtail, herbicidal effect (giant foxtail [23]; dose 6.3 g/a): 3 (mortality of at least 40% and less than 70%) | D: large crabgrass, herbicidal effect (large crabgrass [24]; dose 6.3 g/a): 5 (mortality of 90% or above (nearly complete death)) | M: posumbu knotweed, herbicidal effect (posumbu knotweed [25]; dose 6.3 g/a): 3 (mortality of at least 40% and less than 70%) | K: redroot pigweed, herbicidal effect (redroot pigweed [26]; dose 6.3 g/a): 4 (mortality of at least 70% and less than 90%) | I: velvetleaf, herbicidal effect (velvetleaf [27]; dose 6.3 g/a): 4 (mortality of at least 70% and less than 90%) | G: water foxtail, herbicidal effect (water foxtail [28]; dose 6.3 g/a): 5 (mortality of 90% or above (nearly complete death)) | F: wild oat, herbicidal effect (wild oat [29]; dose 6.3 g/a): 1 (mortality of at least 5% and less than 20%)

O=C1CC(c2ccccc2)OCN1Cc1ccccc1N(C(=O)OCCCl)S(=O)(=O)C(F)(F)F (stereo not shown) [II-12]
A: barnyardgrass, herbicidal effect (evaluation scale 0-5) (barnyardgrass [1]): 5 (mortality of 90% or above (nearly complete death)) | B: bulrush, herbicidal effect (evaluation scale 0-5) (bulrush [2]): 5 (mortality of 90% or above (nearly complete death)) | C: ducksalad, herbicidal effect (evaluation scale 0-5) (ducksalad [3]): 5 (mortality of 90% or above (nearly complete death)) | a: transplanted rice, effect on crop (evaluation scale 0-5) (transplanted rice): 0 (mortality of less than 5% (almost ineffective)) | A: barnyardgrass, herbicidal effect (evaluation scale 0-5) (barnyardgrass [30]): 4 (mortality of at least 70% and less than 90%) | B: bulrush, herbicidal effect (evaluation scale 0-5) (bulrush [4]): 5 (mortality of 90% or above (nearly complete death)) | C: ducksalad, herbicidal effect (evaluation scale 0-5) (ducksalad [5]): 5 (mortality of 90% or above (nearly complete death)) | H: Italian ryegrass, herbicidal effect (evaluation scale 0-5) (Italian ryegrass [6]; dose 3.2 g/a): 4 (mortality of at least 70% and less than 90%) | A: barnyardgrass, herbicidal effect (evaluation scale 0-5) (barnyardgrass [7]; dose 3.2 g/a): 4 (mortality of at least 70% and less than 90%) | N: common chickweed, herbicidal effect (evaluation scale 0-5) (common chickweed [8]; dose 3.2 g/a): 3 (mortality of at least 40% and less than 70%) | L: common lambsquater, herbicidal effect (evaluation scale 0-5) (common lambsquater [9]; dose 3.2 g/a): 0 (mortality of less than 5% (almost ineffective)) | J: common ragweed, herbicidal effect (evaluation scale 0-5) (common ragweed [10]; dose 3.2 g/a): 0 (mortality of less than 5% (almost ineffective)) | E: giant foxtail, herbicidal effect (evaluation scale 0-5) (giant foxtail [11]; dose 3.2 g/a): 5 (mortality of 90% or above (nearly complete death)) | D: large crabgrass, herbicidal effect (evaluation scale 0-5) (large crabgrass [12]; dose 3.2 g/a): 4 (mortality of at least 70% and less than 90%) | M: posumbu knotweed, herbicidal effect (evaluation scale 0-5) (posumbu knotweed [13]; dose 3.2 g/a): 0 (mortality of less than 5% (almost ineffective)) | K: redroot pigweed, herbicidal effect (evaluation scale 0-5) (redroot pigweed [14]; dose 3.2 g/a): 0 (mortality of less than 5% (almost ineffective)) | G: water foxtail, herbicidal effect (evaluation scale 0-5) (water foxtail [16]; dose 3.2 g/a): 5 (mortality of 90% or above (nearly complete death)) | F: wild oat, herbicidal effect (evaluation scale 0-5) (wild oat [17]; dose 3.2 g/a): 0 (mortality of less than 5% (almost ineffective)) | H: Italian ryegrass, herbicidal effect (Italian ryegrass [18]; dose 3.2 g/a): 0 (mortality of less than 5% (almost ineffective)) | A: barnyardgrass, herbicidal effect (barnyardgrass [19]; dose 3.2 g/a): 5 (mortality of 90% or above (nearly complete death)) | O: beadstraw, herbicidal effect (beadstraw; dose 3.2 g/a): 4 (mortality of at least 70% and less than 90%) | N: common chickweed, herbicidal effect (common chickweed [20]; dose 3.2 g/a): 3 (mortality of at least 40% and less than 70%) | L: common lambsquater, herbicidal effect (common lambsquater [21]; dose 3.2 g/a): 0 (mortality of less than 5% (almost ineffective)) | J: common ragweed, herbicidal effect (common ragweed [22]; dose 3.2 g/a): 4 (mortality of at least 70% and less than 90%) | E: giant foxtail, herbicidal effect (giant foxtail [23]; dose 3.2 g/a): 3 (mortality of at least 40% and less than 70%) | D: large crabgrass, herbicidal effect (large crabgrass [24]; dose 3.2 g/a): 2 (mortality of at least 20% and less than 40%) | M: posumbu knotweed, herbicidal effect (posumbu knotweed [25]; dose 3.2 g/a): 1 (mortality of at least 5% and less than 20%) | K: redroot pigweed, herbicidal effect (redroot pigweed [26]; dose 3.2 g/a): 0 (mortality of less than 5% (almost ineffective)) | I: velvetleaf, herbicidal effect (velvetleaf [27]; dose 3.2 g/a): 3 (mortality of at least 40% and less than 70%) | G: water foxtail, herbicidal effect (water foxtail [28]; dose 3.2 g/a): 4 (mortality of at least 70% and less than 90%) | F: wild oat, herbicidal effect (wild oat [29]; dose 3.2 g/a): 0 (mortality of less than 5% (almost ineffective))
